Legend:
[1] = target: T1, Protein deacetylase HDAC6 (Homo sapiens, UniProt Q9UBN7); assay: Inhibition of HDAC6 (unknown origin)
T1 sequence (Q9UBN7 whole entry): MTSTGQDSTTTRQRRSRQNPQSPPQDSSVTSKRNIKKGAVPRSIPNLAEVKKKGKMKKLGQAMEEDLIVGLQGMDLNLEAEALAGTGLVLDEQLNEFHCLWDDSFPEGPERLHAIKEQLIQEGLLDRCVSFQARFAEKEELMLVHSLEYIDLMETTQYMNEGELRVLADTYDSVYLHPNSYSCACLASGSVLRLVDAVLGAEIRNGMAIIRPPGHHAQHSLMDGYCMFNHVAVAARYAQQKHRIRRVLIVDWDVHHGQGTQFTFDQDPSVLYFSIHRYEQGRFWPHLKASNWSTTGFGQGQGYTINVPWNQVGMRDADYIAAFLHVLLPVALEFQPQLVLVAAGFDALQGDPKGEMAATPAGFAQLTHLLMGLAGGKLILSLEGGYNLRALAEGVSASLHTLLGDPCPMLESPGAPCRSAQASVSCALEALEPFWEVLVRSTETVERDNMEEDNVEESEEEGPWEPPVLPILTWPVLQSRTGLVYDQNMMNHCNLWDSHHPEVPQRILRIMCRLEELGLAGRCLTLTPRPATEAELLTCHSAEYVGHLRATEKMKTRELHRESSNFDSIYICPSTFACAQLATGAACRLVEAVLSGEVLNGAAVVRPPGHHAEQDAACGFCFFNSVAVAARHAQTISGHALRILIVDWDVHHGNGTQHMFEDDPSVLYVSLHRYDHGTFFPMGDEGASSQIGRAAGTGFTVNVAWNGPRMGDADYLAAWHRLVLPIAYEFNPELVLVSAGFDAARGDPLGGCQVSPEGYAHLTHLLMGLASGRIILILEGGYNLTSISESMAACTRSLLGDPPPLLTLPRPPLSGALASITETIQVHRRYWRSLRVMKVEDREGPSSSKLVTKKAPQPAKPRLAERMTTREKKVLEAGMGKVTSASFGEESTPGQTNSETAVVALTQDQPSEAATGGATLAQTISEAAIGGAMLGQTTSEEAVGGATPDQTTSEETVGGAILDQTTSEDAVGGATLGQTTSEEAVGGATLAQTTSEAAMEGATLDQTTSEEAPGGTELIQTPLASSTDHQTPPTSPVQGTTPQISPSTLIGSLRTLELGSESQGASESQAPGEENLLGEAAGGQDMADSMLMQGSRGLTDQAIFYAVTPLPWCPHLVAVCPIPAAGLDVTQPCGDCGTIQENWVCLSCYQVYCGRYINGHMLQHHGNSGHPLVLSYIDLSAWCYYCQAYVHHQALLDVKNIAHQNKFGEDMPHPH

Histone deacetylase 8 = target: T2, Histone deacetylase 8 (Homo sapiens, UniProt Q9BY41); assay: Inhibition of HDAC8 (unknown origin)
T2 sequence (Q9BY41 whole entry): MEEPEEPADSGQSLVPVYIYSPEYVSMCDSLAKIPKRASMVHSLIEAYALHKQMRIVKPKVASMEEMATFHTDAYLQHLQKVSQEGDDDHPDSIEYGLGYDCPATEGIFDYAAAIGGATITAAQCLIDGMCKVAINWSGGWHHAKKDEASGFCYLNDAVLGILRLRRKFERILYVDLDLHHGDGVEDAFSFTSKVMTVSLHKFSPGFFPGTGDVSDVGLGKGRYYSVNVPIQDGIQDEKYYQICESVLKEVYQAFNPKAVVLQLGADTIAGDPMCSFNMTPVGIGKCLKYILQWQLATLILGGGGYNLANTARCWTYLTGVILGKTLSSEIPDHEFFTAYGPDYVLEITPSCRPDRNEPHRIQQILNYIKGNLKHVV

Histone deacetylase 11 = Histone deacetylase 11 (Homo sapiens, UniProt Q96DB2); assay: Inhibition of HDAC11 (unknown origin)
Histone deacetylase 2 = Histone deacetylase 2 (Homo sapiens, UniProt Q92769); assay: Inhibition of HDAC2 (unknown origin)
Histone deacetylase 3 = Histone deacetylase 3 (Homo sapiens, UniProt O15379); assay: Inhibition of HDAC3 (unknown origin)
[2] = target: Polyamine deacetylase HDAC10 (Homo sapiens, UniProt Q969S8); assay: Inhibition of HDAC10 (unknown origin)
Histone deacetylase 1 = Histone deacetylase 1 (Homo sapiens, UniProt Q13547); assay: Inhibition of HDAC1 (unknown origin)
Histone deacetylase 4 = Histone deacetylase 4 (Homo sapiens, UniProt P56524); assay: Inhibition of HDAC4 (unknown origin)
Histone deacetylase 4, sequence (P56524 whole entry): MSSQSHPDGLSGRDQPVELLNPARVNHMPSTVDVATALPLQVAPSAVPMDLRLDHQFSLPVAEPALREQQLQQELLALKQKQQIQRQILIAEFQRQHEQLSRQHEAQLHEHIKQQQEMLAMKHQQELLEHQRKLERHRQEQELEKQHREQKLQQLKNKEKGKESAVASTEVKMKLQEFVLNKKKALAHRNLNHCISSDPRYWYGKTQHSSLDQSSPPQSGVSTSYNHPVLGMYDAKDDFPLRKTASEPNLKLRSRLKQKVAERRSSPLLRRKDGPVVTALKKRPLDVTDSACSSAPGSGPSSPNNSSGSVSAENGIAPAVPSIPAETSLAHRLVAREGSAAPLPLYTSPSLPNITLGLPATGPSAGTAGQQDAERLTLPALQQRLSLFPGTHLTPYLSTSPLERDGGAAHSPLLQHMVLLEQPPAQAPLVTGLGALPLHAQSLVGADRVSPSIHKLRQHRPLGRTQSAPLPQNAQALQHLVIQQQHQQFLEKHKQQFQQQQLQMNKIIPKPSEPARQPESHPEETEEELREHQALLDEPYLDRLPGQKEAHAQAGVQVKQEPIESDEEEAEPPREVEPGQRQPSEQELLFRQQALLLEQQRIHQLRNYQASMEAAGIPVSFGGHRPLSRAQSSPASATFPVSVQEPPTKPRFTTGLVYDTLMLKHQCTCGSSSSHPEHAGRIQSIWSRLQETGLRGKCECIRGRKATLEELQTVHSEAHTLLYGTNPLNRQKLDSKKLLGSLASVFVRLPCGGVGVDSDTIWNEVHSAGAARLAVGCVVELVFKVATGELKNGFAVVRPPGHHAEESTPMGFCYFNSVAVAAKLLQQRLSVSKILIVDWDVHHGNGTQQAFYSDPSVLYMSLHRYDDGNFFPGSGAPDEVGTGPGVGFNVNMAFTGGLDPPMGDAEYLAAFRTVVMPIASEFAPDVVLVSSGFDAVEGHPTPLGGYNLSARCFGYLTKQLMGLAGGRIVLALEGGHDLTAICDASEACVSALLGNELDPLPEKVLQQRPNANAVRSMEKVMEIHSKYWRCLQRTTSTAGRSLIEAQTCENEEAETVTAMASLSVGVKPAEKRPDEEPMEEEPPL

Polyamine deacetylase HDAC10, sequence (Q969S8 whole entry): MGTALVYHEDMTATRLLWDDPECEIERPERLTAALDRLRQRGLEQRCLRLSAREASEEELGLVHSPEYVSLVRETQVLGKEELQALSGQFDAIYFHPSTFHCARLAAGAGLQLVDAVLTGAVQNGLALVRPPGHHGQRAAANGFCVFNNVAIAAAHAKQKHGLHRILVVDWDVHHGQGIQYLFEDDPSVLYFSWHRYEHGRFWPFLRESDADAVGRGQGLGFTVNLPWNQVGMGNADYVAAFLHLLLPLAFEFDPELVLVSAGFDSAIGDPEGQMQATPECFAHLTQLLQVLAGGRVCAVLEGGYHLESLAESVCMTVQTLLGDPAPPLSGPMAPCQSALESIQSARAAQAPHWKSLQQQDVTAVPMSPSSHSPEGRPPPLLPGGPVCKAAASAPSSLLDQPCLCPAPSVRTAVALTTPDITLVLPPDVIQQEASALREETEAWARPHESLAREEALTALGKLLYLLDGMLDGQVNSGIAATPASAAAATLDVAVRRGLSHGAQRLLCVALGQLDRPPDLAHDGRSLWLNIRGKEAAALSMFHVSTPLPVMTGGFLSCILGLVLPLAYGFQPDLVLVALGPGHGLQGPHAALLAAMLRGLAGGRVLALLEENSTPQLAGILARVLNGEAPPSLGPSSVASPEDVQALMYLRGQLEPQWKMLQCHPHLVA
Histone deacetylase 3, sequence (O15379 whole entry): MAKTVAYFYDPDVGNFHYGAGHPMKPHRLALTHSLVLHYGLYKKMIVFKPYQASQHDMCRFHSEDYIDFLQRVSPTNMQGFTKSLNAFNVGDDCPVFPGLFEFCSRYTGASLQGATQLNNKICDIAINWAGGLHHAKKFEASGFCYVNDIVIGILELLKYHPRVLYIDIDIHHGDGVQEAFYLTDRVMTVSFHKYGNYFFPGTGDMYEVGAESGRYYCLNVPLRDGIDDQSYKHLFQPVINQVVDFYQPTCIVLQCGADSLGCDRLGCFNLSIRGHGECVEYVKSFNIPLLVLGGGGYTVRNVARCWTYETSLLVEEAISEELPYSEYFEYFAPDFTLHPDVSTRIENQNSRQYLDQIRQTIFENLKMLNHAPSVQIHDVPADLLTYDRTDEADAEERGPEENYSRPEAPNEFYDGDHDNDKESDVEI
Histone deacetylase 11, sequence (Q96DB2 whole entry): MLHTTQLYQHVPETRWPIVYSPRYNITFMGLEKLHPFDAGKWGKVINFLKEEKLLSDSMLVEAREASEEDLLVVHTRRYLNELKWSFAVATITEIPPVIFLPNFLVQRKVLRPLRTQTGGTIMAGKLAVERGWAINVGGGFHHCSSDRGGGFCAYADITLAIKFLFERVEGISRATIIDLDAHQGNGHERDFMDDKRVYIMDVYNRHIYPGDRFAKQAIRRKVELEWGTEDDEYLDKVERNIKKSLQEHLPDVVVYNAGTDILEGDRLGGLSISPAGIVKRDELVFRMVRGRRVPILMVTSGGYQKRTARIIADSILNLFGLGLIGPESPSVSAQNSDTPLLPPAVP
Histone deacetylase 1, sequence (Q13547 whole entry): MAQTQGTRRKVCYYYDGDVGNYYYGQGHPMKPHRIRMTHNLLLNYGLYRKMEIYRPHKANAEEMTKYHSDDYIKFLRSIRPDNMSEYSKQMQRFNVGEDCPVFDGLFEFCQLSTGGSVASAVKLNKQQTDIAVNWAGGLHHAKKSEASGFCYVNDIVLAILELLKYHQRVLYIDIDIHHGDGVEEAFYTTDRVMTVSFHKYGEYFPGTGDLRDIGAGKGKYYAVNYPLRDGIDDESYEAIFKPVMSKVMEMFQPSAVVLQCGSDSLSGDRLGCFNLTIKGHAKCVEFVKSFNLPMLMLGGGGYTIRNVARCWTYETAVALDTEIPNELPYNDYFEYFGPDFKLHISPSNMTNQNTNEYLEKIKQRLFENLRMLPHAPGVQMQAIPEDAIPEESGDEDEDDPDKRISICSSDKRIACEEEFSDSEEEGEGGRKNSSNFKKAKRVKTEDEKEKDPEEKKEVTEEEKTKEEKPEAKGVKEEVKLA
Histone deacetylase 2, sequence (Q92769 whole entry): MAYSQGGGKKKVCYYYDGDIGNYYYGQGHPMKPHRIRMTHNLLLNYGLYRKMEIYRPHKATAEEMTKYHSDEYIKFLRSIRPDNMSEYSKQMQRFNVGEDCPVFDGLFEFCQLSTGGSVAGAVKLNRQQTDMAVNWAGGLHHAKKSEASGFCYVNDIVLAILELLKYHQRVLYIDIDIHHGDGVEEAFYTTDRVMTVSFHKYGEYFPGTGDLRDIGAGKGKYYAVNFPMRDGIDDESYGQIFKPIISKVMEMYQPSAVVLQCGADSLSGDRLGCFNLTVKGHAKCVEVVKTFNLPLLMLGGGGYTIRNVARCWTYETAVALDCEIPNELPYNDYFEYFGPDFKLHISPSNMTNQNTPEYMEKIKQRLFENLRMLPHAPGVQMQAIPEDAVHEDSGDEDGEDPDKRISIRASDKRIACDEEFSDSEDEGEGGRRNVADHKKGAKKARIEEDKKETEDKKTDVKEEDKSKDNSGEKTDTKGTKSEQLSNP

IC50 [1]: > 100 nM | IC50 (Histone deacetylase 8): > 100 nM | IC50 (Histone deacetylase 11): > 100 nM | IC50 (Histone deacetylase 2): 10 nM | IC50 (Histone deacetylase 3): 27 nM | IC50 [2]: 5.5 nM | IC50 (Histone deacetylase 1): 0.16 nM | IC50 (Histone deacetylase 4): > 100 nM
SMILES: CN1c2ccccc2C(=O)N2[C@H](C(=O)Nc3ccc(C(=O)Nc4ccccc4N)cc3)Cc3c([nH]c4ccccc34)[C@@H]12

Source: ChEMBL document CHEMBL6121021, “Design and Synthesis of Topoisomerases-Histone Deacetylase Dual Targeted Quinoline-Bridged Hydroxamates as Anticancer Agents” (J Med Chem, 2025)
